From patent US11254668B2, “Pyrazolo[1,5-A]pyrazin-4-yl and related derivatives” (Pfizer Inc., priority 2017, dated 2022)
Where two headings read alike, the source gives them in different places.

Key:
Format in all cases: biochemical
TYK2 = TYK2 (Homo sapiens (Human), UniProt P29597); assay: JAK Caliper Enzyme Assay at 1 mM ATP, TYK2
Procedure, shortened: (§1)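 Read-out is Caliper LabChip mobility-shift separation of phosphorylated from unphosphorylated fluorescent peptide after EDTA termination. Each JAK kinase domain (human, recombinant) runs at 1 mM ATP at room temperature, adjusted for 20–30% turnover. Inhibition is normalized to DMSO and positive-control wells and plotted against concentration.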

JAK1 = JAK1 (Homo sapiens (Human), UniProt P23458); assay: JAK Caliper Enzyme Assay at 1 mM ATP, JAK1
Procedure, shortened: (§2)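 Recombinant human kinase domains phosphorylate a fluorescent synthetic peptide at 1 mM ATP, room temperature, with enzyme and time tuned for 20-30% conversion; EDTA-stopped. Product/substrate separated by microfluidic mobility shift; percent effect versus DMSO and positive controls fitted to IC50 (nM).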

JAK2 = JAK2 (Homo sapiens (Human), UniProt O60674); assay: JAK Caliper Enzyme Assay at 1 mM ATP, JAK2
Procedure, shortened: as §1

JAK3 = JAK3 (Homo sapiens (Human), UniProt P52333); assay: JAK Caliper Enzyme Assay at 1 mM ATP, JAK3
Procedure, shortened: as §2

Chain of JAK2 (O60674 849-1124): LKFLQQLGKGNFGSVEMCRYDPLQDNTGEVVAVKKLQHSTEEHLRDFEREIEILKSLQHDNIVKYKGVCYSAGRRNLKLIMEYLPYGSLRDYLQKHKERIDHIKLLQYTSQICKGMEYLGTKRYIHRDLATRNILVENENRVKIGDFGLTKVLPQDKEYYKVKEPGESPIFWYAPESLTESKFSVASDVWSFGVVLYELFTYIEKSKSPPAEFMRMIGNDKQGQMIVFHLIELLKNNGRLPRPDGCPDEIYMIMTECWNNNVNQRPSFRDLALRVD
Chain of TYK2 (P29597 897-1176): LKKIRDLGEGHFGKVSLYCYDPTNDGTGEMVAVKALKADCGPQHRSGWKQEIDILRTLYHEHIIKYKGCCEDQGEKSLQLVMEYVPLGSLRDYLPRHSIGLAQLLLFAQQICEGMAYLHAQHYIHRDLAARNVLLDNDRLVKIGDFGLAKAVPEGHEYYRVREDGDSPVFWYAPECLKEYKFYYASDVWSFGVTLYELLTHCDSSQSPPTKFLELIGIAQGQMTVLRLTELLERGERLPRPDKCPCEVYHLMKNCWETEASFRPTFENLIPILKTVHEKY
Chain of JAK1 (P23458 875-1153): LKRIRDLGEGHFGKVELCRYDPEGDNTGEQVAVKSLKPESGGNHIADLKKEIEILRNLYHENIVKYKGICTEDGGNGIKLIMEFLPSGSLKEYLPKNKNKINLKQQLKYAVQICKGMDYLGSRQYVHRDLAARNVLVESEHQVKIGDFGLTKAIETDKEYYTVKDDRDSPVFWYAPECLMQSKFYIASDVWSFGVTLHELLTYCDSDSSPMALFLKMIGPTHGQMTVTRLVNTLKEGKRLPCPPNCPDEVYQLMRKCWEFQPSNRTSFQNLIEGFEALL
Chain of JAK3 (P52333 822-1111): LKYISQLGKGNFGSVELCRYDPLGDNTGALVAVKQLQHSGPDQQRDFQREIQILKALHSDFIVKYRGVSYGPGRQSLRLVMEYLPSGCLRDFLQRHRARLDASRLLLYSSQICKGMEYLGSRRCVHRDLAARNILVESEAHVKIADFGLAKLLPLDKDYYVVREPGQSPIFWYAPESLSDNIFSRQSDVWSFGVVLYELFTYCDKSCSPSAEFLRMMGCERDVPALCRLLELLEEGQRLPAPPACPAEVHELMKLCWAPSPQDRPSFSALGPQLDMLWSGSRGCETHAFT

With `CO[C@H]1C[C@@](CC#N)(n2cc(-c3nc(-c4cc(CO)n[nH]4)cc4ncccc34)cn2)C1` [Example 12, [cis-1-(4-{7-[3-(hydroxymethyl)-1H-pyrazol-5-yl]-1,6-naphthyridin-5-yl}-1H-pyrazol-1-yl)-3-methoxycyclobutyl]acetonitrile] the IC50 (TYK2) was 63 nM, the IC50 (JAK1) was 407 nM and the IC50 (JAK2) was 101 nM. For the same compound, the IC50 (JAK3) was > 10 µM.
For `C[C@]1(C#N)C[C@@](CC#N)(n2ncc(-c3cc(-c4cn[nH]c4N)cc4ncccc34)n2)C1` [Example 322, cis-3-{4-[7-(5-amino-1H-pyrazol-4-yl)quinolin-5-yl]-2H-1,2,3-triazol-2-yl}-3-(cyanomethyl)-1-methylcyclobutanecarbonitrile], the IC50 (TYK2) was 74 nM, the IC50 (JAK1) was 2590 nM and the IC50 (JAK2) was 959 nM. The IC50 (JAK3) was > 10 µM.
`CS(=O)(=O)N1CC(CC#N)(n2ncc(-c3cc(-c4ccc(CN)cc4)cc4ncccc34)n2)C1` [Example 428, [3-(4-{7-[4-(aminomethyl)phenyl]quinolin-5-yl}-2H-1,2,3-triazol-2-yl)-1-(methylsulfonyl)azetidin-3-yl]acetonitrile] was tested, and the IC50 (TYK2; JAK Caliper enzyme assay) was 128 nM, the IC50 (JAK1; JAK Caliper enzyme assay) was 9320 nM and the IC50 (JAK2; JAK Caliper enzyme assay) was 924 nM. The IC50 (JAK3; JAK Caliper enzyme assay) was > 10 µM.
`N#CC[C@]1(n2ncc(-c3cc(-c4c[nH]nc4CO)cc4ncccc34)n2)C[C@H](C#N)C1` [Example 317, trans-3-(cyanomethyl)-3-(4-{7-[3-(hydroxymethyl)-1H-pyrazol-4-yl]quinolin-5-yl}-2H-1,2,3-triazol-2-yl)cyclobutanecarbonitrile] was tested, and the IC50 (TYK2) was 57 nM, the IC50 (JAK1) was 2830 nM and the IC50 (JAK2) was 838 nM. The IC50 (JAK3) was > 10 µM.
`COc1ncc(-c2cc(-c3cnn(C4(CC#N)CN(S(C)(=O)=O)C4)n3)c3cccnc3c2)cn1` [Example 405, [3-{4-[7-(2-methoxypyrimidin-5-yl)quinolin-5-yl]-2H-1,2,3-triazol-2-yl}-1-(methylsulfonyl)azetidin-3-yl]acetonitrile] was tested, and the IC50 (TYK2; JAK Caliper enzyme assay) was 3060 nM, the IC50 (JAK1; JAK Caliper enzyme assay) was > 10000 nM and the IC50 (JAK2; JAK Caliper enzyme assay) was > 10000 nM. The IC50 (JAK3; JAK Caliper enzyme assay) was > 10 µM.
`N#CC[C@]1(n2ccc(-c3nc(-c4ccc(N)nc4)cc4ncccc34)n2)C[C@@H](C#N)C1` [Example 195, cis-3-{3-[7-(6-aminopyridin-3-yl)-1,6-naphthyridin-5-yl]-1H-pyrazol-1-yl}-3-(cyanomethyl)cyclobutanecarbonitrile] was tested, and the IC50 (TYK2) was 9 nM, the IC50 (JAK1) was 50 nM and the IC50 (JAK2) was 31 nM. For the same compound, the IC50 (JAK3) was 2.06 µM.
With `CS(=O)(=O)Nc1ccc(-c2cc(-c3cnn(C4(CC#N)CC(C#N)C4)n3)c3cccnc3c2)nc1` (stereo not drawn) [Example 375, N-[6-(5-{2-[trans-3-cyano-1-(cyanomethyl)cyclobutyl]-2H-1,2,3-triazol-4-yl}quinolin-7-yl)pyridin-3-yl]methanesulfonamide] the IC50 (TYK2; JAK Caliper enzyme assay) was 30 nM, the IC50 (JAK1; JAK Caliper enzyme assay) was 452 nM and the IC50 (JAK2; JAK Caliper enzyme assay) was 148 nM. The IC50 (JAK3; JAK Caliper enzyme assay) was > 10 µM.
Work on `N#CC[C@]1(n2ncc(-c3cc(-c4ccc(N)cn4)cc4ncccc34)n2)C[C@H](C#N)C1` [Example 360, trans-3-{4-[7-(5-aminopyridin-2-yl)quinolin-5-yl]-2H-1,2,3-triazol-2-yl}-3-(cyanomethyl)cyclobutanecarbonitrile] yielded an IC50 (TYK2) of 40 nM, an IC50 (JAK1) of 1720 nM and an IC50 (JAK2) of 354 nM. For the same compound, the IC50 (JAK3) was > 10 µM.
With `Cn1cnc2cc(-c3cc4ncccc4c(-c4ccn(C5(CC#N)CN(S(C)(=O)=O)C5)n4)n3)cnc21` [Example 164, [3-{3-[7-(3-methyl-3H-imidazo[4,5-b]pyridin-6-yl)-1,6-naphthyridin-5-yl]-1H-pyrazol-1-yl}-1-(methylsulfonyl)azetidin-3-yl]acetonitrile] the IC50 (TYK2) was 235 nM, the IC50 (JAK1) was 6570 nM and the IC50 (JAK2) was 4720 nM. The IC50 (JAK3) was > 10 µM.
Work on `CS(=O)(=O)N1CC(CC#N)(n2ccc(-c3nc(-c4cnn([C@@H]5CCOC5)c4)cc4ncccc34)n2)C1` [Example 124, {1-(methylsulfonyl)-3-[3-(7-{1-[(3R)-tetrahydrofuran-3-yl]-1H-pyrazol-4-yl}-1,6-naphthyridin-5-yl)-1H-pyrazol-1-yl]azetidin-3-yl}acetonitrile] yielded an IC50 (TYK2) of 27 nM, an IC50 (JAK1) of 715 nM and an IC50 (JAK2) of 68 nM. For the same compound, the IC50 (JAK3) was 9.88 µM.
`N#CCC1(n2ccc(-c3nc(-c4cc5n(n4)CCNC5)cc4ncccc34)n2)CC(C#N)C1` (stereo not drawn) [Example 72, cis-3-(cyanomethyl)-3-{3-[7-(4,5,6,7-tetrahydropyrazolo[1,5-a]pyrazin-2-yl)-1,6-naphthyridin-5-yl]-1H-pyrazol-1-yl}cyclobutanecarbonitrile] gave an IC50 (TYK2) of 28 nM, an IC50 (JAK1) of 676 nM and an IC50 (JAK2) of 48 nM. It also gave an IC50 (JAK3) of 5.1 µM.
For `CO[C@H]1C[C@@](CC#N)(n2ccc(-c3nc(-c4cnn(C5COC5)c4)cc4ncccc34)n2)C1` [Example 122, [cis-3-methoxy-1-(3-{7-[1-(oxetan-3-yl)-1H-pyrazol-4-yl]-1,6-naphthyridin-5-yl}-1H-pyrazol-1-yl)cyclobutyl]acetonitrile], the IC50 (TYK2) was 110 nM, the IC50 (JAK1) was 6660 nM and the IC50 (JAK2) was 391 nM. The IC50 (JAK3) was > 10 µM.
`CS(=O)(=O)N1CC(CC#N)(n2ncc(-c3cc(-c4ccc(F)cc4O)cc4ncccc34)n2)C1` [Example 441, [3-{4-[7-(4-fluoro-2-hydroxyphenyl)quinolin-5-yl]-2H-1,2,3-triazol-2-yl}-1-(methylsulfonyl)azetidin-3-yl]acetonitrile] was tested, and the IC50 (TYK2; JAK Caliper enzyme assay) was 1100 nM, the IC50 (JAK1; JAK Caliper enzyme assay) was > 10000 nM and the IC50 (JAK2; JAK Caliper enzyme assay) was > 10000 nM. For the same compound, the IC50 (JAK3; JAK Caliper enzyme assay) was > 10 µM.
In the case of `CS(=O)(=O)N1CC(CC#N)(n2ncc(-c3cc(-c4ccccc4O)cc4ncccc34)n2)C1` [Example 437, [3-{4-[7-(2-hydroxyphenyl)quinolin-5-yl]-2H-1,2,3-triazol-2-yl}-1-(methylsulfonyl)azetidin-3-yl]acetonitrile], the IC50 (TYK2; JAK Caliper enzyme assay) is reported as 1210 nM, the IC50 (JAK1; JAK Caliper enzyme assay) is reported as > 10000 nM and the IC50 (JAK2; JAK Caliper enzyme assay) is reported as > 10000 nM. The IC50 (JAK3; JAK Caliper enzyme assay) was > 10 µM.
`CS(=O)(=O)c1ccc(-c2cc3ncccc3c(-c3ccn(C4(CC#N)CN(S(C)(=O)=O)C4)n3)n2)cn1` [Example 206, [1-(methylsulfonyl)-3-(3-{7-[6-(methylsulfonyl)pyridin-3-yl]-1,6-naphthyridin-5-yl}-1H-pyrazol-1-yl)azetidin-3-yl]acetonitrile] was tested, and the IC50 (TYK2) was 50 nM, the IC50 (JAK1) was 2530 nM and the IC50 (JAK2) was 479 nM. For the same compound, the IC50 (JAK3) was > 10 µM.
`CS(=O)(=O)N1CC(CC#N)(n2ccc(-c3nc(-c4cnn5ccccc45)cc4ncccc34)n2)C1` [Example 161, [1-(methylsulfonyl)-3-{3-[7-(pyrazolo[1,5-a]pyridin-3-yl)-1,6-naphthyridin-5-yl]-1H-pyrazol-1-yl}azetidin-3-yl]acetonitrile] was tested, and the IC50 (TYK2) was 35 nM, the IC50 (JAK1) was 404 nM and the IC50 (JAK2) was 368 nM. For the same compound, the IC50 (JAK3) was > 10 µM.
For `CCn1cc(-c2cc3ncccc3c(-c3ccn(C4(CC#N)CN(S(C)(=O)=O)C4)n3)n2)ccc1=O` [Example 251, [3-{3-[7-(1-ethyl-6-oxo-1,6-dihydropyridin-3-yl)-1,6-naphthyridin-5-yl]-1H-pyrazol-1-yl}-1-(methylsulfonyl)azetidin-3-yl]acetonitrile], the IC50 (TYK2) was 48 nM, the IC50 (JAK1) was 541 nM and the IC50 (JAK2) was 229 nM. The IC50 (JAK3) was > 10 µM.
Work on `CN1C(=O)COc2ccc(-c3cc(-c4cnn([C@]5(CC#N)C[C@@H](C#N)C5)n4)c4cccnc4c3)nc21` [Example 426, trans-3-(cyanomethyl)-3-{4-[7-(4-methyl-3-oxo-3,4-dihydro-2H-pyrido[3,2-b][1,4]oxazin-6-yl)quinolin-5-yl]-2H-1,2,3-triazol-2-yl}cyclobutanecarbonitrile] yielded an IC50 (TYK2; JAK Caliper enzyme assay) of 24 nM, an IC50 (JAK1; JAK Caliper enzyme assay) of 1000 nM and an IC50 (JAK2; JAK Caliper enzyme assay) of 50 nM. For the same compound, the IC50 (JAK3; JAK Caliper enzyme assay) was > 10 µM.
